Experimental data from ChEMBL document CHEMBL1157976, “Iridoid constituents of Tarenna attenuata” (J Nat Prod, 2006).
Activity calls are given as the source filed them. The rule behind the calls is not given here.

Experiments:
PC-12 [1] = test: Cytotoxicity against rat PC12 cells at 0.4 to 50 uM; type: functional, cell-based
PC-12 [2] = test: Antioxidant activity against H2O2-induced impairment of rat PC12 cells apoptosis at 0.4 to 50 uM; type: functional, cell-based

Row | SMILES | Activity (PC-12 [1]) | Activity (PC-12 [2])
1 | COc1cc(C(=O)OC[C@H]2O[C@@H](O[C@@H]3OC=C(C(=O)O)[C@H]4CC=C(C(=O)O)[C@@H]34)[C@H](O)[C@@H](O)[C@@H]2O)ccc1O | inactive | inactive
2 | COc1cc(/C=C/C(=O)OC[C@H]2O[C@@H](O[C@@H]3OC=C(C(=O)O)[C@H]4CC=C(C(=O)O)[C@@H]34)[C@H](O)[C@@H](O)[C@@H]2O)ccc1O | inactive | inactive
3 | COC(=O)C1=CC[C@@H]2C(C(=O)O)=CO[C@@H](O[C@@H]3O[C@H](CO)[C@@H](O)[C@H](O)[C@H]3O)[C@H]12 | inactive | inactive
4 | COc1cc(C(=O)OC[C@H]2O[C@@H](O[C@@H]3OC=C(C(=O)O)[C@H]4CC=C(C(=O)O)[C@@H]34)[C@H](O)[C@@H](O)[C@@H]2O)cc(OC)c1O | inactive | inactive
5 | O=C(O)C1=CC[C@@H]2C(C(=O)O)=CO[C@@H](O[C@@H]3O[C@H](COC(=O)c4ccccc4)[C@@H](O)[C@H](O)[C@H]3O)[C@H]12 | inactive | inactive
6 | COc1cc(/C=C/C(=O)O[C@H]2[C@H](O)[C@@H](O)[C@H](O[C@@H]3OC=C(C(=O)O)[C@H]4CC=C(C(=O)O)[C@@H]34)O[C@@H]2CO)ccc1O | inactive | inactive
7 | O=C(/C=C/c1ccccc1)OC[C@H]1O[C@@H](O[C@@H]2OC=C(C(=O)O)[C@H]3CC=C(C(=O)O)[C@@H]23)[C@H](O)[C@@H](O)[C@@H]1O | inactive | inactive
8 | COc1cc(C(=O)O[C@@H]2[C@@H](O)[C@H](O[C@@H]3OC=C(C(=O)O)[C@H]4CC=C(C(=O)O)[C@@H]34)O[C@H](CO)[C@H]2O)ccc1O | inactive | inactive
9 | O=C(O)C1=CC[C@@H]2C(C(=O)O)=CO[C@@H](O[C@@H]3O[C@H](CO)[C@@H](O)[C@H](O)[C@H]3O)[C@H]12 | inactive | inactive
